{"source": "ChEMBL document CHEMBL1201862", "about": "“PubChem BioAssay data set” (2004)", "test_in_all_cases": "NCI anticancer screen, dose series, 48 h", "key": {"NCI-H226": {"system": "NCI-H226"}, "SNB-19": {"system": "SNB-19"}, "SF-295": {"system": "SF-295"}, "OVCAR-8": {"system": "OVCAR-8"}, "OVCAR-3": {"system": "OVCAR-3"}, "MDA-N": {"system": "MDA-N"}, "A549": {"system": "A549"}, "SK-MEL-5": {"system": "SK-MEL-5"}, "K562": {"system": "K562"}, "RXF 393": {"system": "RXF 393"}, "ACHN": {"system": "ACHN"}, "T47D": {"system": "T47D"}, "LOX IMVI": {"system": "LOX IMVI"}, "U-251": {"system": "U-251"}, "CAKI-1": {"system": "CAKI-1"}, "COLO 205": {"system": "COLO 205"}, "Hs-578T": {"system": "Hs-578T"}, "SK-MEL-2": {"system": "SK-MEL-2"}, "UACC-257": {"system": "UACC-257"}, "SK-MEL-28": {"system": "SK-MEL-28"}, "HOP-62": {"system": "HOP-62"}, "BT-549": {"system": "BT-549"}, "786-0": {"system": "786-0"}, "NCI-H460": {"system": "NCI-H460"}, "NCI/ADR-RES": {"system": "NCI/ADR-RES"}, "HCC 2998": {"system": "HCC 2998"}, "MCF7": {"system": "MCF7"}, "HCT-15": {"system": "HCT-15"}, "DU-145": {"system": "DU-145"}, "HOP-92": {"system": "HOP-92"}, "SNB-75": {"system": "SNB-75"}, "HL-60": {"system": "HL-60"}, "KM12": {"system": "KM12"}, "SN12C": {"system": "SN12C"}, "PC-3": {"system": "PC-3"}, "A498": {"system": "A498"}, "MDA-MB-435": {"system": "MDA-MB-435"}, "HT-29": {"system": "HT-29"}, "SF-539": {"system": "SF-539"}, "UO-31": {"system": "UO-31"}, "OVCAR-4": {"system": "OVCAR-4"}, "IGROV-1": {"system": "IGROV-1"}, "RPMI-8226": {"system": "RPMI-8226"}, "SK-OV-3": {"system": "SK-OV-3"}, "Malme-3M": {"system": "Malme-3M"}, "NCI-H522": {"system": "NCI-H522"}, "TK-10": {"system": "TK-10"}, "OVCAR-5": {"system": "OVCAR-5"}, "HCT-116": {"system": "HCT-116"}, "MDA-MB-231": {"system": "MDA-MB-231"}, "EKVX": {"system": "EKVX"}, "NCI-H23": {"system": "NCI-H23"}, "UACC-62": {"system": "UACC-62"}, "CCRF-CEM": {"system": "CCRF-CEM"}, "MOLT-4": {"system": "MOLT-4"}, "SF-268": {"system": "SF-268"}, "SW-620": {"system": "SW-620"}, "M14": {"system": "M14"}, "SR": {"system": "SR"}}, "note": "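Five concentrations, 48 hours, 96-well plates. The concentration for 50% growth inhibition is given as GI50.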 Calls of active or inactive are those of the source. Cut-off read from the data, not from the text of the source: active = GI50 up to about 1.1 µM and inactive = higher.", "data": [{"smiles": "CCN(CC)c1ccc(/C=C(\\C#N)c2nc(N)nc(N3N=C(C)CC3(C)C)n2)cc1", "values": [{"measurement": "GI50", "setting": "NCI-H226", "result": "2.9 µM (inactive)"}, {"measurement": "GI50", "setting": "SNB-19", "result": "17.9 µM (inactive)"}, {"measurement": "GI50", "setting": "SF-295", "result": "16.6 µM (inactive)"}, {"measurement": "GI50", "setting": "OVCAR-8", "result": "10.6 µM (inactive)"}, {"measurement": "GI50", "setting": "OVCAR-3", "result": "17.5 µM (inactive)"}, {"measurement": "GI50", "setting": "MDA-N", "result": "24.1 µM (inactive)"}, {"measurement": "GI50", "setting": "A549", "result": "16.2 µM (inactive)"}, {"measurement": "GI50", "setting": "SK-MEL-5", "result": "21.6 µM (inactive)"}, {"measurement": "GI50", "setting": "K562", "result": "> 38.1 µM (inactive)"}, {"measurement": "GI50", "setting": "RXF 393", "result": "8.93 µM (inactive)"}, {"measurement": "GI50", "setting": "ACHN", "result": "14.7 µM (inactive)"}, {"measurement": "GI50", "setting": "T47D", "result": "17.2 µM (inactive)"}, {"measurement": "GI50", "setting": "LOX IMVI", "result": "14 µM (inactive)"}, {"measurement": "GI50", "setting": "U-251", "result": "13.3 µM (inactive)"}, {"measurement": "GI50", "setting": "CAKI-1", "result": "15.1 µM (inactive)"}, {"measurement": "GI50", "setting": "COLO 205", "result": "29.6 µM (inactive)"}, {"measurement": "GI50", "setting": "Hs-578T", "result": "2.4 µM (inactive)"}, {"measurement": "GI50", "setting": "SK-MEL-2", "result": "15.6 µM (inactive)"}, {"measurement": "GI50", "setting": "UACC-257", "result": "45.2 µM (inactive)"}, {"measurement": "GI50", "setting": "SK-MEL-28", "result": "36.1 µM (inactive)"}, {"measurement": "GI50", "setting": "HOP-62", "result": "11.1 µM (inactive)"}, {"measurement": "GI50", "setting": "BT-549", "result": "47.4 µM (inactive)"}, {"measurement": "GI50", "setting": "786-0", "result": "13.4 µM (inactive)"}, {"measurement": "GI50", "setting": "NCI-H460", "result": "18.3 µM (inactive)"}, {"measurement": "GI50", "setting": "NCI/ADR-RES", "result": "15.8 µM (inactive)"}, {"measurement": "GI50", "setting": "HCC 2998", "result": "30.1 µM (inactive)"}, {"measurement": "GI50", "setting": "MCF7", "result": "32 µM (inactive)"}, {"measurement": "GI50", "setting": "HCT-15", "result": "> 59.3", "unit": "µM"}, {"measurement": "GI50", "setting": "DU-145", "result": "9.64 µM (inactive)"}, {"measurement": "GI50", "setting": "HOP-92", "result": "6.97 µM (inactive)"}, {"measurement": "GI50", "setting": "SNB-75", "result": "10 µM (inactive)"}, {"measurement": "GI50", "setting": "HL-60", "result": "43.7 µM (inactive)"}, {"measurement": "GI50", "setting": "KM12", "result": "13.1 µM (inactive)"}, {"measurement": "GI50", "setting": "SN12C", "result": "27.3 µM (inactive)"}, {"measurement": "GI50", "setting": "PC-3", "result": "37.2 µM (inactive)"}, {"measurement": "GI50", "setting": "A498", "result": "16.2 µM (inactive)"}, {"measurement": "GI50", "setting": "MDA-MB-435", "result": "21.1 µM (inactive)"}, {"measurement": "GI50", "setting": "HT-29", "result": "18.8 µM (inactive)"}, {"measurement": "GI50", "setting": "SF-539", "result": "6.89 µM (inactive)"}, {"measurement": "GI50", "setting": "UO-31", "result": "22.4 µM (inactive)"}, {"measurement": "GI50", "setting": "OVCAR-4", "result": "11.6 µM (inactive)"}, {"measurement": "GI50", "setting": "IGROV-1", "result": "7.82 µM (inactive)"}, {"measurement": "GI50", "setting": "RPMI-8226", "result": "32 µM (inactive)"}, {"measurement": "GI50", "setting": "SK-OV-3", "result": "6.61 µM (inactive)"}, {"measurement": "GI50", "setting": "Malme-3M", "result": "18.2 µM (inactive)"}, {"measurement": "GI50", "setting": "NCI-H522", "result": "16.9 µM (inactive)"}, {"measurement": "GI50", "setting": "TK-10", "result": "14.8 µM (inactive)"}, {"measurement": "GI50", "setting": "OVCAR-5", "result": "26.7 µM (inactive)"}, {"measurement": "GI50", "setting": "HCT-116", "result": "15.9 µM (inactive)"}, {"measurement": "GI50", "setting": "MDA-MB-231", "result": "13.6 µM (inactive)"}, {"measurement": "GI50", "setting": "EKVX", "result": "24.4 µM (inactive)"}, {"measurement": "GI50", "setting": "NCI-H23", "result": "27.5 µM (inactive)"}, {"measurement": "GI50", "setting": "UACC-62", "result": "30.3 µM (inactive)"}, {"measurement": "GI50", "setting": "CCRF-CEM", "result": "19.1 µM (inactive)"}, {"measurement": "GI50", "setting": "MOLT-4", "result": "10.7 µM (inactive)"}, {"measurement": "GI50", "setting": "SF-268", "result": "15 µM (inactive)"}, {"measurement": "GI50", "setting": "SW-620", "result": "55.6 µM (inactive)"}, {"measurement": "GI50", "setting": "M14", "result": "19.2 µM (inactive)"}, {"measurement": "GI50", "setting": "SR", "result": "12.2 µM (inactive)"}]}]}
